In patent US7390870B2, “Immune-enhancing peptides” (Posco, priority 2001, dated 2008):
No end group written: not given here.

How the values were obtained:
[1] = test system: human monocytes; assay: Checkboard analysis of monocyte migration across polycarbonate membrane; assay type: cell-based; conditions: 2 hr
Experimental: (§1) Chemotaxis assays of the peptide were performed using multiwell chambers (Neuroprobe Inc., Gaithersburg, Md.) (20). Briefly, the prepared isolated human monocytes were suspended in RPMI at a concentration of 1×10^6 cells/ml of serum-free RPMI, and 25 □ of the suspension were placed onto the upper well of a 96-well chemotaxis chamber that was separated by a […] filter with a 5 □ pore size (3 □ diameter pores not coated with polyvinylpyrrolidone for neutrophils) from peptides or an fMLF-containing lower well. After incubation for 2 hours (90 minutes for neutrophils) at 37° C., non-migrated cells were removed by scraping them out, and cells that migrated across the filter were dehydrated, fixed, and stained with hematoxylin (Sigma, St. Louis, Mo.). The stained cells in five randomly chosen high power fields (HPF) (400×) in that well were then counted (21). The numbers of migrated cells were determined by counting them in a high power field (400×). For a checkboard analysis, cells were re-suspended in RPMI containing various concentrations of the peptide just before transferring them to the upper wells as described before (22).
To distinguish whether the peptide-induced monocyte migration is chemotaxis or chemokinesis, a checkboard analysis was performed as described above (22, 26).

[2] = test system: differentiated HL60 cells; assay: [Ca2+]i increase in differentiated HL60 cells (dHL60, granulocyte phenotype); assay type: cell-based, human; conditions: FIG. 5; various concentrations
Experimental: U937 (human histiocytic lymphoma cells), HL60 (human promyelocytic leukemia cells), Jurkat (human T cell leukemia cells), NIH3T3 (NIH Swiss mouse embryo fibroblasts), 3Y1 (Rat embryonic fibroblasts), 3T3L1 (preadipocytes), and PC12 (rat adrenal pheochromocytoma cells) were obtained from the American Type Culture Collection (Rockville, Md.) and maintained as re, commended. The cells were maintained at about 1×10^6 cells/ml under standard incubator conditions (humidified atmosphere, 95% air, 5% CO2, 37° C.). HL60 cells were induced to differentiate into the granulocyte phenotype by adding dimethylsulfoxide (DMSO) (final concentration 1.25%, v/v) for 4 days to the culture medium as has been described before (18).
The level of [Ca^2+]i was determined by Grynkiewicz's method using fura-2/AM (21). Briefly, prepared cells were incubated with 3 μM fura-2/AM at 37° C. for 50 minutes in a fresh serum-free RPMI 1640 medium under continuous stirring. […] The fluorescence changes at the dual excitation wavelengths of 340 nm and 380 nm and the emission wavelength of 500 nm were measured, and the calibrated fluorescence ratio was translated into [Ca^2+]i.
A test where the three peptides on HL60 cells that had differentiated into granulocytes after having been cultured in the presence of 1.25% DMSO for 4 days was performed. […] The peak level of the [Ca^2+]i increase was recorded. […]

[3] = test system: monocytes; assay: Receptor specificity: monocyte chemotaxis after preincubation with a peptide; assay type: cell-based, human; conditions: FIG. 9, preincubation 10 μM peptide 10 minutes
Experimental: as §1
The three peptides, HFYLPM, MFYLPM, and HFYLPm which have similar sequences, exerted similar effects on human leukocytes in that they stimulated superoxide generation and chemotactic migration involving PTX-sensitive G-protein(s). So an attempt to reveal whether the three peptides acted through the same or different receptor(s) was carried out. For this purpose, monocytes were preincubated with 10 μM of each peptide, HFYLPM, MFYLPM, or HFYLPm for 10 minutes at 37° C., or they remained untreated. After washing twice, the cells were used for chemotaxis assay. The cells were allowed to migrate towards the maximal effective concentrations of each peptide (1 μM HFYLPM, 1 μM MFYLPM, or 10 nM HFYLPm) or medium. After fixing and staining of the membrane, migrated cells were quantified microscopically. […]

[4] = test system: PC12 (rat adrenal pheochromocytoma); assay: [Ca2+]i rise in PC12 cells (fura-2); assay type: cell-based; conditions: FIG. 4A; 20 μM peptide
Experimental: The level of [Ca^2+]i was determined by Grynkiewicz's method using fura-2/AM (21). Briefly, prepared cells were incubated with 3 μM fura-2/AM at 37° C. for 50 minutes in a fresh serum-free RPMI 1640 medium under continuous stirring. 2×10^6 cells were aliquoted for each assay in Ca^2+-free Locke's solution (154 mM NaCl, 5.6 mM KCl1.2 mM MgCl2, 5 mM HEPES, pH 7.3, 10 mM glucose, and 0.2 mM EGTA). The fluorescence changes at the dual excitation wavelengths of 340 nm and 380 nm and the emission wavelength of 500 nm were measured, and the calibrated fluorescence ratio was translated into [Ca^2+]i.
From the fact that HFYLPM, MFYLPM, and HFYLPm stimulate human monocytes, effects of the peptides on other leukocytes such as neutrophils were evaluated. Prepared human primary monocytes, neutrophils, cultured HL60, Jurkat, U937, NIH3T3, 3Y1, 3T3L1, and PC12 cells were loaded with fura-2 and stimulated with effective concentrations of the three peptides (1 μM for monocyte and neutrophil; 10 μM for HL60 and Jurkat; 20 μM for U937, NIH3T3, 3Y1, 3T3L1, and PC12). The peak level of the [Ca^2+]i increase was recorded and superoxide generation was measured using cytochrome c reduction assay. The results are shown FIG. 4. The data of FIG. 4 are presented as means ±S.E. from at least three independent experiments.

Met-Phe-Tyr-Leu-Pro-Met-CONH2 (MFYLPM-NH2)
migrated monocytes in 5 HPF ([1]; peptide below 0 nM, above 10 nM): 11.3 ± 2.42
migrated monocytes in 5 HPF ([1]; peptide below 0 nM, above 100 nM): 15.0 ± 3.50
migrated monocytes in 5 HPF ([1]; peptide below 0 nM, above 1000 nM): 11.0 ± 2.67
migrated monocytes in 5 HPF ([1]; peptide below 10 nM, above 0 nM): 198 ± 32.3
migrated monocytes in 5 HPF ([1]; peptide below 10 nM, above 10 nM): 33.7 ± 8.93
migrated monocytes in 5 HPF ([1]; peptide below 10 nM, above 100 nM): 16.0 ± 3.16
migrated monocytes in 5 HPF ([1]; peptide below 10 nM, above 1000 nM): 12.3 ± 3.43
migrated monocytes in 5 HPF ([1]; peptide below 100 nM, above 0 nM): 557 ± 29.5
migrated monocytes in 5 HPF ([1]; peptide below 100 nM, above 10 nM): 425 ± 48.3
migrated monocytes in 5 HPF ([1]; peptide below 100 nM, above 100 nM): 66.3 ± 14.9
migrated monocytes in 5 HPF ([1]; peptide below 100 nM, above 1000 nM): 18.0 ± 4.05
migrated monocytes in 5 HPF ([1]; peptide below 1000 nM, above 0 nM): 484 ± 43.6
migrated monocytes in 5 HPF ([1]; peptide below 1000 nM, above 10 nM): 395 ± 38.5
migrated monocytes in 5 HPF ([1]; peptide below 1000 nM, above 100 nM): 198 ± 26.7
migrated monocytes in 5 HPF ([1]; peptide below 1000 nM, above 1000 nM): 76.7 ± 18.9
[Ca2+]i rise in differentiated HL60 cells [2]: stimulated both undifferentiated and differentiated HL60 cells
inhibition of HFYLPm-induced cell migration by preincubation with peptide ([3]; migration towards 10 nM HFYLPm): no inhibition
inhibition of HFYLPm-induced cell migration by preincubation with peptide ([3]; migration towards 1 μM HFYLPM): partial inhibition
inhibition of MFYLPM-induced cell migration by preincubation with peptide ([3]; migration towards 1 μM MFYLPM): complete inhibition
[Ca2+]i rise in PC12 cells [4]: no response
